Reference: US9216986B1, “Quinoline derivatives as PDE10A enzyme inhibitors” (H. Lundbeck A/S, priority 2011, dated 2015)
“And” between values parts separate entries of the source, which are not always exact repeats. Equal entries are not always repeated.

biological target: PDE10A enzyme (Homo sapiens (Human), UniProt Q9Y233); assay: PDE10A inhibition assay; format: biochemical; settings: tritium labeled cAMP 5 nM
Procedure: Active PDE10A enzyme is prepared in a number of ways for use in PDE assays (Loughney, K. et al. Gene 1999, 234, 109-117; Fujishige, K. et al. Eur J Biochem. 1999, 266, 1118-1127 and Soderling, S. et al. Proc. Natl. Acad. Sci. 1999, 96, 7071-7076). PDE10A can be expressed as full-length proteins or as truncated proteins, as long as they express the catalytic domain. PDE10A can be prepared in different cell types, for example insect cells or E. coli. An example of a method to obtain catalytically active PDE10A is as follows: The catalytic domain of human PDE10A (amino acids 440-779 from the sequence with accession number NP 006652) is amplified from total human brain total RNA by standard RT-PCR and is cloned into the BamH1 and Xho1 sites of the pET28a vector (Novagen). Expression in coli is performed according to standard protocols. Briefly, the expression plasmids are transformed into the BL21(DE3) E. coli strain, and 50 mL cultures inoculated with the cells allowed to grow to an OD600 of 0.4-0.6 before protein expression is induced with 0.5 mM IPTG. Following induction, the cells are incubated overnight at room temperature, after which the cells are collected by centrifugation. Cells expressing PDE10A are resuspended in 12 mL (50 mM TRIS-HCl-pH8.0, 1 mM MgCl2 and protease inhibitors). The cells are lysed by sonication, and after all cells are lysed, TritonX100 is added according to Novagen protocols.
A PDE10A assay may for example, be performed as follows: The assay is performed in 60 uL samples containing a fixed amount of the relevant PDE enzyme (sufficient to convert 20-25% of the cyclic nucleotide substrate), a buffer (50 mM HEPES7.6; 10 mM MgCl2; 0.02% Tween20), 0.1 mg/ml BSA, 225 pCi of ^3H-labelled cyclic nucleotide substrate, tritium labeled cAMP to a final concentration of 5 nM and varying amounts of inhibitors. Reactions are initiated by addition of the cyclic nucleotide substrate, and reactions are allowed to proceed for one hr at room temperature before being terminated through mixing with 15 uL 8 mg/mL yttrium silicate SPA beads (Amersham). The beads are allowed to settle for one hr in the dark before the plates are counted in a Wallac 1450 Microbeta counter. The measured signal can be converted to activity relative to an uninhibited control (100%) and IC50 values can be calculated using the XIfit extension to EXCEL.

PDE10A enzyme, sequence (Q9Y233 716-1055): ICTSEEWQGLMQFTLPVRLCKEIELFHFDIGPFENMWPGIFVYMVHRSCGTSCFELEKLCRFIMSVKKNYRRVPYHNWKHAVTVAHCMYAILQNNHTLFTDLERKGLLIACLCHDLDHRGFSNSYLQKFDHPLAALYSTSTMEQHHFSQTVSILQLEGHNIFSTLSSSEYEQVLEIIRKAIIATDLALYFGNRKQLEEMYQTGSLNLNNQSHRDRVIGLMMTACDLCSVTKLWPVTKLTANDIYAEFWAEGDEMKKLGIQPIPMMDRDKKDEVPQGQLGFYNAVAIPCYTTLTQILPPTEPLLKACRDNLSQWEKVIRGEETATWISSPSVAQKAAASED

| IC50 | Structure (SMILES) |
| --- | --- |
| 0.17 µM | COc1ccc2nc(CCc3nc4nc(C)cc(C)n4n3)ccc2c1 [2-[2-(5,7-Dimethyl-[1,2,4]triazolo[1,5-a]pyrimidin-2-yl)-ethyl]-6-methoxy-quinoline] |
| 0.072 µM | Cc1cc(C)n2nc(CCc3ccc4ccccc4n3)nc2n1 [2-[2-(5,7-Dimethyl-[1,2,4]triazolo[1,5-a]pyrimidin-2-yl)-ethyl]-quinoline] |
| 0.31 µM | Cc1cc(C)n2cc(CCc3ccc4ccccc4n3)nc2n1 [2-[2-(5,7-Dimethyl-imidazo[1,2-a]pyrimidin-2-yl)-ethyl]-quinoline] |
| 0.028 µM | Cc1ncc(C)n2nc(CCc3cc(F)c4ccccc4n3)nc12 [2-[2-(5,8-Dimethyl-[1,2,4]triazolo[1,5-a]pyrazin-2-yl)-ethyl]-4-fluoro-quinoline] |
| 0.012 µM | COc1cc(CCc2nc3c(C)ncc(C)n3n2)nc2ccccc12 [2-[2-(5,8-Dimethyl-[1,2,4]triazolo[1,5-a]pyrazin-2-yl)-ethyl]-4-methoxy-quinoline] |
| 0.018 µM | Cc1cc(CCc2nc3c(C)ncc(C)n3n2)nc2ccccc12 [2-[2-(5,8-Dimethyl-[1,2,4]triazolo[1,5-a]pyrazin-2-yl)-ethyl]-4-methyl-quinoline] |
| 0.36 µM | Cc1ncc(C)n2nc(CCc3ccc4c(F)c(F)cc(F)c4n3)nc12 [2-[2-(5,8-Dimethyl-[1,2,4]triazolo[1,5-a]pyrazin-2-yl)-ethyl]-5,6,8-trifluoro-quinoline] |
| 0.11 µM | Cc1ncc(C)n2nc(CCc3ccc4c(F)cc(F)cc4n3)nc12 [2-[2-(5,8-Dimethyl-[1,2,4]triazolo[1,5-a]pyrazin-2-yl)-ethyl]-5,7-difluoro-quinoline] |
| 0.12 µM | Cc1ncc(C)n2nc(CCc3ccc4c(F)cccc4n3)nc12 [2-[2-(5,8-Dimethyl-[1,2,4]triazolo[1,5-a]pyrazin-2-yl)-ethyl]-5-fluoro-quinoline] |
| 0.3 µM | Cc1ncc(C)n2nc(CCc3ccc4cc(F)cc(F)c4n3)nc12 [2-[2-(5,8-Dimethyl-[1,2,4]triazolo[1,5-a]pyrazin-2-yl)-ethyl]-6,8-difluoro-quinoline] |
| 0.014 µM | COc1cc(CCc2nc3c(C)ncc(C)n3n2)nc2ccc(F)cc12 [2-[2-(5,8-Dimethyl-[1,2,4]triazolo[1,5-a]pyrazin-2-yl)-ethyl]-6-fluoro-4-methoxy-quinoline] |
| 0.0088 µM | Cc1cc2nc(CCc3nc4c(C)ncc(C)n4n3)ccc2cc1F [2-[2-(5,8-Dimethyl-[1,2,4]triazolo[1,5-a]pyrazin-2-yl)-ethyl]-6-fluoro-7-methyl-quinoline] |
| 2 µM | Cc1cc(F)cc2ccc(CCc3nc4c(C)ncc(C)n4n3)nc12 [2-[2-(5,8-Dimethyl-[1,2,4]triazolo[1,5-a]pyrazin-2-yl)-ethyl]-6-fluoro-8-methyl-quinoline] |
| 0.41 µM | Cc1ncc(C)n2nc(CCc3cc(O)c4cc(F)ccc4n3)nc12 [2-[2-(5,8-Dimethyl-[1,2,4]triazolo[1,5-a]pyrazin-2-yl)-ethyl]-6-fluoro-quinolin-4-ol] |
| 0.024 µM and 0.026 µM | Cc1ncc(C)n2nc(CCc3ccc4cc(F)ccc4n3)nc12 [2-[2-(5,8-Dimethyl-[1,2,4]triazolo[1,5-a]pyrazin-2-yl)-ethyl]-6-fluoro-quinoline] |
| 0.026 µM | COc1cc(CCc2nc3c(C)ncc(C)n3n2)nc2cc(F)ccc12 [2-[2-(5,8-Dimethyl-[1,2,4]triazolo[1,5-a]pyrazin-2-yl)-ethyl]-7-fluoro-4-methoxy-quinoline] |
| 0.5 µM | Cc1ncc(C)n2nc(CCc3cc(O)c4ccc(F)cc4n3)nc12 [2-[2-(5,8-Dimethyl-[1,2,4]triazolo[1,5-a]pyrazin-2-yl)-ethyl]-7-fluoro-quinolin-4-ol] |
| 0.015 µM | Cc1ncc(C)n2nc(CCc3ccc4ccc(F)cc4n3)nc12 [2-[2-(5,8-Dimethyl-[1,2,4]triazolo[1,5-a]pyrazin-2-yl)-ethyl]-7-fluoro-quinoline] |
| 0.24 µM | Cc1ncc(C)n2nc(CCc3ccc4ccc(C(F)(F)F)cc4n3)nc12 [2-[2-(5,8-Dimethyl-[1,2,4]triazolo[1,5-a]pyrazin-2-yl)-ethyl]-7-trifluoromethyl-quinoline] |
| 0.019 µM | Cc1ncc(C)n2nc(CCc3ccc4ccccc4n3)nc12 [2-[2-(5,8-Dimethyl-[1,2,4]triazolo[1,5-a]pyrazin-2-yl)-ethyl]-quinoline] |

| IC50 | Structure (SMILES) |
| --- | --- |
| 0.024 µM | Cc1ccc(C)n2nc(CCc3ccc4ccccc4n3)nc12 [2-[2-(5,8-Dimethyl-[1,2,4]triazolo[1,5-a]pyridin-2-yl)-ethyl]-quinoline] |
| 0.061 µM | Cc1cnc(C)n2nc(CCc3ccc4cc(C(C)C)ccc4n3)nc12 [2-[2-(5,8-Dimethyl-[1,2,4]triazolo[1,5-c]pyrimidin-2-yl)-ethyl]-6-isopropyl-quinoline] |
| 0.085 µM | Cc1ccc(O)c2nc(CCc3ccc4cc(F)ccc4n3)nn12 [2-[2-(6-Fluoro-quinolin-2-yl)-ethyl]-5-methyl-[1,2,4]triazolo[1,5-a]pyridin-8-ol] |
| 0.025 µM | CCc1ccc(C)n2nc(CCc3ccc4cc(F)ccc4n3)nc12 [2-[2-(8-Ethyl-5-methyl-[1,2,4]triazolo[1,5-a]pyridin-2-yl)-ethyl]-6-fluoro-quinoline] |
| 0.042 µM | COc1ccc(C)n2nc(CCc3cc(C)c4ccccc4n3)nc12 [2-[2-(8-Methoxy-5-methyl-[1,2,4]triazolo[1,5-a]pyridin-2-yl)-ethyl]-4-methyl-quinoline] |
| 0.012 µM | COc1ccc(C)n2nc(CCc3ccc4ccccc4n3)nc12 [2-[2-(8-Methoxy-5-methyl-[1,2,4]triazolo[1,5-a]pyridin-2-yl)-ethyl]-quinoline] |
| 0.32 µM | Cc1cc(C)n2cc(/C=C/c3ccc4ccccc4n3)nc2n1 [2-[(E)-2-(5,7-Dimethyl-imidazo[1,2-a]pyrimidin-2-yl)-vinyl]-quinoline] |
| 0.019 µM | COc1cccc2nc(/C=C/c3nc4c(C)ncc(C)n4n3)ccc12 [2-[(E)-2-(5,8-Dimethyl-[1,2,4]triazolo[1,5-a]pyrazin-2-yl)-vinyl]-5-methoxy-quinoline] |
| 2.1 µM | Cc1ncc(C)n2nc(/C=C/c3ccc4cc(C#N)ccc4n3)nc12 [2-[(E)-2-(5,8-Dimethyl-[1,2,4]triazolo[1,5-a]pyrazin-2-yl)-vinyl]-6-cyano-quinoline] |
| 0.19 µM | Cc1ncc(C)n2nc(/C=C/c3ccc4cc(F)ccc4n3)nc12 [2-[(E)-2-(5,8-Dimethyl-[1,2,4]triazolo[1,5-a]pyrazin-2-yl)-vinyl]-6-fluoro-quinoline] |
| 2.8 µM | Cc1ncc(C)n2nc(/C=C/c3ccc4cc(OC(F)(F)F)ccc4n3)nc12 [2-[(E)-2-(5,8-Dimethyl-[1,2,4]triazolo[1,5-a]pyrazin-2-yl)-vinyl]-6-trifluoromethoxy-quinoline] |
| 0.49 µM | Cc1ncc(C)n2nc(/C=C/c3ccc4cc(C(F)(F)F)ccc4n3)nc12 [2-[(E)-2-(5,8-Dimethyl-[1,2,4]triazolo[1,5-a]pyrazin-2-yl)-vinyl]-6-trifluoromethyl-quinoline] |
| 0.013 µM | COc1ccc2ccc(/C=C/c3nc4c(C)ncc(C)n4n3)nc2c1 [2-[(E)-2-(5,8-Dimethyl-[1,2,4]triazolo[1,5-a]pyrazin-2-yl)-vinyl]-7-methoxy-quinoline] |
| 0.55 µM | Cc1ncc(C)n2nc(/C=C/c3ccc4ccc(C(F)(F)F)cc4n3)nc12 [2-[(E)-2-(5,8-Dimethyl-[1,2,4]triazolo[1,5-a]pyrazin-2-yl)-vinyl]-7-trifluoromethyl-quinoline] |
| 0.24 µM | Cc1cc(C)n2cc(/C=C\c3ccc4ccccc4n3)nc2n1 [2-[(Z)-2-(5,7-Dimethyl-imidazo[1,2-a]pyrimidin-2-yl)-vinyl]-quinoline] |
| 0.27 µM | COc1ccc(C)n2nc(/C=C/c3cc(Cl)c4cccc(F)c4n3)nc12 [4-Chloro-8-fluoro-2-[(E)-2-(8-methoxy-5-methyl-[1,2,4]triazolo[1,5-a]pyridin-2-yl)-vinyl]-quinoline] |
| 0.19 µM | COc1cc(CCc2nc3cccc(C)n3n2)nc2ccccc12 [4-Methoxy-2-[2-(5-methyl-[1,2,4]triazolo[1,5-a]pyridin-2-yl)-ethyl]-quinoline] |
| 0.035 µM | COc1cc(CCc2nc3c(OC)ccc(C)n3n2)nc2ccccc12 [4-Methoxy-2-[2-(8-methoxy-5-methyl-[1,2,4]triazolo[1,5-a]pyridin-2-yl)-ethyl]-quinoline] |
| 0.14 µM | Cc1cc(CCc2nc3cccc(C)n3n2)nc2ccccc12 [4-Methyl-2-[2-(5-methyl-[1,2,4]triazolo[1,5-a]pyridin-2-yl)-ethyl]-quinoline] |
| 0.039 µM | Cc1ncc(C)n2nc(CCc3ccc4c(Cl)cc(Cl)cc4n3)nc12 [5,7-Dichloro-2-[2-(5,8-dimethyl-[1,2,4]triazolo[1,5-a]pyrazin-2-yl)-ethyl]-quinoline] |
